Data: ChEMBL document CHEMBL3774318, “Synthesis and antiproliferative activity of goniobutenolides A and B, 5-halogenated crassalactone D derivatives and the corresponding 7-epimers” (Eur J Med Chem, 2016)

How the values were obtained:
[1] = Cytotoxicity against human HL60 cells assessed as cell growth inhibition after 72 hrs by MTT assay; format: functional, cell-based; conditions: HL-60, 72 h
[2] = Cytotoxicity against human Jurkat T cells assessed as cell growth inhibition after 72 hrs by MTT assay; format: functional, cell-based

## COc1cccc2c1C(=O)c1c(O)c3c(c(O)c1C2=O)C[C@@](O)(C(=O)CO)C[C@@H]3O[C@H]1C[C@H](N)[C@H](O)[C@H](C)O1 [DOXORUBICIN]
[1]
  IC50: 920 nM
[2]
  IC50: 30 nM
